Reference: US10392368B2, “Pyrazolo and triazolo bicyclic compounds as JAK kinase inhibitors” (THERAVANCE BIOPHARMA R&D IP, LLC, priority 2017, dated 2019)
Read-outs that look alike come from different tables or passages of the source.

Experiments:
JAK1 = target: T1, JAK1 (Homo sapiens, UniProt P23458); test: Biochemical JAK1 kinase assay (LanthaScreen); details: for Ki: read-out: JAK 1 (pKi) (converted)
T1 construct: GST; purchased Life Technologies
Summary of the method: (§1)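 TR-FRET read-out: terbium anti-pSTAT1 (pTyr701) antibody, 2 nM, with 10 mM EDTA quench, emission ratio 520/495 nm. GST-JAK phosphorylates GFP-STAT1 peptide for 1 h at ambient temperature after 1 h compound pre-incubation. pIC50 from dose-response converted to pKi by Cheng-Prusoff.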

JAK3 = target: T2, JAK3 (Homo sapiens, UniProt P52333); test: Biochemical JAK3 kinase assay (LanthaScreen); design: GST; purchased Life Technologies; details: for Ki: read-out: JAK 3 (pKi) (converted)
T2 sequence (P52333 1-1124): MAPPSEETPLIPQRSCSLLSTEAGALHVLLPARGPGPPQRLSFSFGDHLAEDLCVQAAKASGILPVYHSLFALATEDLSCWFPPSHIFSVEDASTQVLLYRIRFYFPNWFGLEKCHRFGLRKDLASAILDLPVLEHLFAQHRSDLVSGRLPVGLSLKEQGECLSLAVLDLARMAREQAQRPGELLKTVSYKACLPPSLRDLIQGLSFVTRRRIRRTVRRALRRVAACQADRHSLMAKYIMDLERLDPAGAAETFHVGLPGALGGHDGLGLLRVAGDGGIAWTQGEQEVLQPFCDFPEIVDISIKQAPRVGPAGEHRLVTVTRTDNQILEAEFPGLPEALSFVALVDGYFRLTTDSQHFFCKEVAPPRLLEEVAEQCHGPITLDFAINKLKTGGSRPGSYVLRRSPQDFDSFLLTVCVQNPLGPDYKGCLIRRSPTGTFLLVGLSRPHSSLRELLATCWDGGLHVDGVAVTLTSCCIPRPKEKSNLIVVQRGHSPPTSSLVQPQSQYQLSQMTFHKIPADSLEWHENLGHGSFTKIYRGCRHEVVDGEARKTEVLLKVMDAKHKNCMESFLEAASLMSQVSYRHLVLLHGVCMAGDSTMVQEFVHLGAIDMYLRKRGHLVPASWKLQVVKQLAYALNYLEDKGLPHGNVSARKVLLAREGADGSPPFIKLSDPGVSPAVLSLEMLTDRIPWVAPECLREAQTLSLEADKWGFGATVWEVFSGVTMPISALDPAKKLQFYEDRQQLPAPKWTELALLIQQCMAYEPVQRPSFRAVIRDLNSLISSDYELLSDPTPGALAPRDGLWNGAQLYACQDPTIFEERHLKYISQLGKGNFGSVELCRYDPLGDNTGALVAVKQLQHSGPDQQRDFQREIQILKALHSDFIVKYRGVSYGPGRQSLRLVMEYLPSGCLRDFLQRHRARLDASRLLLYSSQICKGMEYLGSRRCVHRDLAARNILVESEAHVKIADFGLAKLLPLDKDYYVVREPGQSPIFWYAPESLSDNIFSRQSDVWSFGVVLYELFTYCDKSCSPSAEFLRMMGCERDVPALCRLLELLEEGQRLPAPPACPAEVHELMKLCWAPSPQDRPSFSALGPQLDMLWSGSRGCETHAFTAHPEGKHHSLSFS
Summary of the method: as §1

Tyk2 = target: T3, Tyk2 (Homo sapiens, UniProt P29597); test: Biochemical Tyk2 kinase assay (LanthaScreen); details: for Ki: read-out: Tyk 2 (pKi) (converted)
T3 construct: GST; purchased Life Technologies
Summary of the method: as §1

[1] = test system: IL-2 stimulated pSTAT5 in Tall-1 T cells; test: Cellular JAK3 potency assay: inhibition of IL-2 stimulated pSTAT5 in Tall-1 T cells; type: cell-based, human; details: for IC50: Homo sapiens, read-out: Tall-1 (pIC50) (converted)
Summary of the method: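 Tall-1 human T cells were preincubated with compound for 1 h at 37° C, then stimulated with IL-2 (300 ng/ml final) for 30 min. STAT5 phosphorylation in lysates was read by AlphaLisa bead emission, and IC50 from inhibition curves is given as pIC50 (mean±SD).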

JAK2 = target: T4, JAK2 (Homo sapiens, UniProt O60674); test: Biochemical JAK2 kinase assay (LanthaScreen); details: for Ki: read-out: JAK 2 (pKi) (converted)
T4 construct: GST; purchased Life Technologies
Summary of the method: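 pKi values derive from pIC50 via Cheng-Prusoff, with IC50 from a 4-parameter fit of percent-inhibition TR-FRET data using Tb-anti-pSTAT1 (pTyr701) detection. Compound, GST-JAK2 and GFP-STAT1 substrate were pre-incubated 1 h, then ATP started a 1 h ambient reaction (HEPES pH 7.5, 10 mM MgCl2, 1% DMSO).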

[2] = selectivity JAK3 over JAK1, difference of pKi
[3] = IL-2 stimulated pSTAT5, Tall-1 T cells
[4] = selectivity: difference of pKi JAK3 and pKi JAK1
[5] = TALL-1, IL-2 stimulated pSTAT5 in Tall-1 T cells

T1 sequence (P23458 whole entry): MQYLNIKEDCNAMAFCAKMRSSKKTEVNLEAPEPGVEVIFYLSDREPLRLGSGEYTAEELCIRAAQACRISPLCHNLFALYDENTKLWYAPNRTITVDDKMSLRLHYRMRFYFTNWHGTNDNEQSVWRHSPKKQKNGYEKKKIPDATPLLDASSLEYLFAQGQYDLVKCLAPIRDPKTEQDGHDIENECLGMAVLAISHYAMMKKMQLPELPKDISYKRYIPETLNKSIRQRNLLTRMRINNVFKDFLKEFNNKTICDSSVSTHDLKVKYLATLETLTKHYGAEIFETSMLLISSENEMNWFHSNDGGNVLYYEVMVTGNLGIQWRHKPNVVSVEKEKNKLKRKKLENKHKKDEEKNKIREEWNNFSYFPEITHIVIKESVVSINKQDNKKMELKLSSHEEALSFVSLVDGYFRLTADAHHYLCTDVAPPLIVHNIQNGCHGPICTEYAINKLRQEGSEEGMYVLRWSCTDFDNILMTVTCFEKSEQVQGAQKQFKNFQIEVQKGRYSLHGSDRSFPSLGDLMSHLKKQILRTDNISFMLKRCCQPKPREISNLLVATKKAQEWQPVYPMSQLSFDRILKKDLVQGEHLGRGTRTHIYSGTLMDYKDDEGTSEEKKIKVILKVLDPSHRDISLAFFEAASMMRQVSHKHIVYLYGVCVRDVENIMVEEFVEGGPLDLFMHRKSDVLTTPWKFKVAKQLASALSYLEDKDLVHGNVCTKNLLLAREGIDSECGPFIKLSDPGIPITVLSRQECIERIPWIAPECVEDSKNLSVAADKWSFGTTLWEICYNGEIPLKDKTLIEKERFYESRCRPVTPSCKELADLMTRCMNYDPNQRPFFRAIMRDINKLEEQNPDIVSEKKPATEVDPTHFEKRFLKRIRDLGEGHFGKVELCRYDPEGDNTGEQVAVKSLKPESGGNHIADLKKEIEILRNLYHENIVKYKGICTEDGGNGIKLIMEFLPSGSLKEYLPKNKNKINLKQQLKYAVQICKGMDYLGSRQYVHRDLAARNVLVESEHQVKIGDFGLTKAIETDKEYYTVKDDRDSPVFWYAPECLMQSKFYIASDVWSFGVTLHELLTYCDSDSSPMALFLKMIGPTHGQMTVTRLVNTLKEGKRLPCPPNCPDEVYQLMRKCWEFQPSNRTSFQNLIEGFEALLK
T4 sequence (O60674 whole entry): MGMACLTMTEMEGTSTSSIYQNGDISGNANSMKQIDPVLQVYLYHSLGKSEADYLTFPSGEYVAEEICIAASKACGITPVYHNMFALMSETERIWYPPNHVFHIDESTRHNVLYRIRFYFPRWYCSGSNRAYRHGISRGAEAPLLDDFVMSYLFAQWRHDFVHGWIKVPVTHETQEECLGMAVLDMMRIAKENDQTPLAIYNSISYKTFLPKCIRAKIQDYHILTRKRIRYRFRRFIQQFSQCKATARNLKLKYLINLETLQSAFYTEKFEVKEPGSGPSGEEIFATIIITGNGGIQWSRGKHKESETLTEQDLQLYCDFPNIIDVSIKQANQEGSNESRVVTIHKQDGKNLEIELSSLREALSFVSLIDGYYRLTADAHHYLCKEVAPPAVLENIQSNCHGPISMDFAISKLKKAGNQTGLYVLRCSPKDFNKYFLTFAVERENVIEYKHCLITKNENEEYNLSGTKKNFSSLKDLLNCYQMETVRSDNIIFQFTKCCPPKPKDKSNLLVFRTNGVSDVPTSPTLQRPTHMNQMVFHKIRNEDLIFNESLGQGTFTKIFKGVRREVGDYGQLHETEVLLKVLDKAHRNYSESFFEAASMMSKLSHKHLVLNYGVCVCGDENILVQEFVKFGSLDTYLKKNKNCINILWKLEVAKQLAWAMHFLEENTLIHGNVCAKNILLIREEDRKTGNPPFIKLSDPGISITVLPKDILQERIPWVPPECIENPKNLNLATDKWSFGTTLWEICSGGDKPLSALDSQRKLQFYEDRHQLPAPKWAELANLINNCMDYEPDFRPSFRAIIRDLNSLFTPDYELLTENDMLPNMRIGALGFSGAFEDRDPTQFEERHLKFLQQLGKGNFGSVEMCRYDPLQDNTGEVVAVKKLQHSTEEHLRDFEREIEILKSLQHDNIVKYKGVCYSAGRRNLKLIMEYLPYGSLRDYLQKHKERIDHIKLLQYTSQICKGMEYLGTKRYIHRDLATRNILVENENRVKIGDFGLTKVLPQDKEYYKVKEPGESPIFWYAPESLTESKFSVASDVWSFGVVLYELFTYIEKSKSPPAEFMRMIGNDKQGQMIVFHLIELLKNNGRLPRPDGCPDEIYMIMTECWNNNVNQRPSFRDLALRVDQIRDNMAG
T3 sequence (P29597 whole entry): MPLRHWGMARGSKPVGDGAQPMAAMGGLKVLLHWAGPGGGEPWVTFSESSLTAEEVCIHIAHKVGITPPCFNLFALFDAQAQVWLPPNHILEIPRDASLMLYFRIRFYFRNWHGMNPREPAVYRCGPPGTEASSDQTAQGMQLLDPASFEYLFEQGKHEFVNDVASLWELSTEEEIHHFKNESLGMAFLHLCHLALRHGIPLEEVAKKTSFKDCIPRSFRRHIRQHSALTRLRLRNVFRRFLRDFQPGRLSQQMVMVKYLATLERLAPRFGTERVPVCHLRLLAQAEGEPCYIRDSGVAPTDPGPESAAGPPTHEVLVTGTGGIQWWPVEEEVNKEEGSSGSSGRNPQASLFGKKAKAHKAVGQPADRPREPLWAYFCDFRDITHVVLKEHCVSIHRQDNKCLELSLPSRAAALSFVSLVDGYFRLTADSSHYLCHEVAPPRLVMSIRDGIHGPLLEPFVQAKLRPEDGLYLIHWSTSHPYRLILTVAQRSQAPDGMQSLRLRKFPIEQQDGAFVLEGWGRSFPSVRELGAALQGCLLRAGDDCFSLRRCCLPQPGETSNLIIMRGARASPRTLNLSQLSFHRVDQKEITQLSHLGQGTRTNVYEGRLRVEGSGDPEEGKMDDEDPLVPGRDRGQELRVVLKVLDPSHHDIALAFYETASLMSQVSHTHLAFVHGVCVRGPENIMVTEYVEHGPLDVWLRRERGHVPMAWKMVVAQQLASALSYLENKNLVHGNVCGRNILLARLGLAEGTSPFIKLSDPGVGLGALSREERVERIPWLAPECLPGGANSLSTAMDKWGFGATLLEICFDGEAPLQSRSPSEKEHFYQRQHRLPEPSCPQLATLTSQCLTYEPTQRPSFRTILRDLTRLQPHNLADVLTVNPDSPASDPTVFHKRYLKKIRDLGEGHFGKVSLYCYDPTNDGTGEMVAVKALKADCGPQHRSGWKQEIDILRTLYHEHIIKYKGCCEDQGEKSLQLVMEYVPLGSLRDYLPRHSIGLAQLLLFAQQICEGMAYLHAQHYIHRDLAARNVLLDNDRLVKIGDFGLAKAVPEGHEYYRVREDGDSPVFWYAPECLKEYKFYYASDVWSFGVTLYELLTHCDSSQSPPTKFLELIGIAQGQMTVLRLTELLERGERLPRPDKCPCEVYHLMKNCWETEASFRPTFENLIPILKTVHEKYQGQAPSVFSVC

## C=CC(=O)N1CCC(C)(Oc2cc(-c3ccc(O)cc3Cl)cc3[nH]ncc23)C1 (stereo not drawn) [Compound 13-14]
JAK1
  JAK 1 (pKi): E (a pKi value of 7 or below (Ki of 100 nM or above))
JAK3
  JAK 3 (pKi): A (a pKi value≥10 (Ki≤0.1 nM))
JAK3; [2]
  JAK3 (pKi)-JAK1 (pKi): A (a value of 3 or above)
Tyk2
  Tyk 2 (pKi): E (a pKi value of 7 or below (Ki of 100 nM or above))
[1]; [3]
  Tall-1 (pIC50): A (a pIC50 value≥7.5 (IC50≤32 nM))
JAK2
  JAK 2 (pKi): D (a pKi value between 7 and 8 (Ki between 100 nM and 10 nM))

## C=CS(=O)(=O)N1CC[C@H](Oc2cc(-c3ccc(O)cc3)cc3[nH]ncc23)C1 [Compound 18, (S)-4-(4-((1-(vinylsulfonyl)pyrrolidin-3-yl)oxy)-1H-indazol-6-yl)phenol]
JAK1
  Ki: > 0.1 µM
JAK3
  Ki: 0.0001 to 0.001 µM
JAK3; [4]
  JAK3 (pKi)-JAK1 (pKi): A (a value of 3 or above)
Tyk2
  Ki: > 0.1 µM
[1]; [5]
  IC50: < 0.0316 µM
JAK2
  Ki: 0.01 to 0.1 µM

## C=CC(=O)N1C2CCC1CC(Oc1cc(-c3ccc(O)cc3)cc3[nH]ncc13)C2 (stereo not drawn) [Compound 9-1]
JAK1
  JAK 1 (pKi): E (a pKi value of 7 or below (Ki of 100 nM or above))
JAK3
  JAK 3 (pKi): A (a pKi value≥10 (Ki≤0.1 nM))
JAK3; [2]
  JAK3 (pKi)-JAK1 (pKi): A (a value of 3 or above)
Tyk2
  Tyk 2 (pKi): E (a pKi value of 7 or below (Ki of 100 nM or above))
[1]; [3]
  Tall-1 (pIC50): A (a pIC50 value≥7.5 (IC50≤32 nM))
JAK2
  JAK 2 (pKi): D (a pKi value between 7 and 8 (Ki between 100 nM and 10 nM))

## C=CC(=O)N1CC(C#N)(COc2nc(-c3ccc(O)c(F)c3)nc3[nH]ncc23)C1 [Compound 3-110]
JAK1
  Ki: > 0.1 µM
JAK3
  Ki: 0.0001 to 0.001 µM
JAK3; [4]
  JAK3 (pKi)-JAK1 (pKi): A (a value of 3 or above)
Tyk2
  Ki: > 0.1 µM
[1]; [5]
  IC50: 0.0316 to 0.2 µM
JAK2
  Ki: > 0.1 µM

## C=CC(=O)N1CC(Sc2cc(-c3ccc(O)cc3)cc3[nH]ncc23)C1 [Compound 12-35]
JAK1
  Ki: > 0.1 µM
JAK3
  Ki: 0.0001 to 0.001 µM
JAK3; [2]
  JAK3 (pKi)-JAK1 (pKi): B (a value of 2.3 to 3)
Tyk2
  Ki: > 0.1 µM
[1]; TALL-1, IL-2 stimulated pSTAT5, Tall-1 T cells
  IC50: 0.0316 to 0.2 µM
JAK2
  Ki: > 0.1 µM

## C=CC(=O)N1CC(F)(COc2cc(-c3ccc(O)c(F)c3)nc3[nH]ncc23)C1 [Compound 3-54]
JAK1
  JAK 1 (pKi): E (a pKi value of 7 or below (Ki of 100 nM or above))
JAK3
  JAK 3 (pKi): B (a pKi value between 9 and 10 (Ki between 1 nM and 0.1 nM))
JAK3; [4]
  JAK3 (pKi)-JAK1 (pKi): A (a value of 3 or above)
Tyk2
  Tyk 2 (pKi): E (a pKi value of 7 or below (Ki of 100 nM or above))
[1]; IL-2 stimulated pSTAT5 in Tall-1 T cells
  Tall-1 (pIC50): A (a pIC50 value≥7.5 (IC50≤32 nM))
JAK2
  JAK 2 (pKi): E (a pKi value of 7 or below (Ki of 100 nM or above))

## C=CC(=O)N1CC[C@@H](Oc2nc(-c3ccc(O)cc3)nc3[nH]ncc23)C[C@H]1C [Compound 13-10]
JAK1
  JAK 1 (pKi): E (a pKi value of 7 or below (Ki of 100 nM or above))
JAK3
  JAK 3 (pKi): B (a pKi value between 9 and 10 (Ki between 1 nM and 0.1 nM))
JAK3; [2]
  JAK3 (pKi)-JAK1 (pKi): A (a value of 3 or above)
Tyk2
  Tyk 2 (pKi): E (a pKi value of 7 or below (Ki of 100 nM or above))
[1]; [3]
  Tall-1 (pIC50): B (a pIC50 value between 6.7 (included) and 7.5 (IC50 between 200 nM and 32 nM))
JAK2
  JAK 2 (pKi): E (a pKi value of 7 or below (Ki of 100 nM or above))
